Data on 2 compounds can be found in patent publication US20120093948A1, “Nitric Oxide Treatments” (priority 2009, published 2012).

Data set [1] relates to Rabbit. The conditions noted are these: less than 1 ppm, duration 24 days; cited from earlier work.
Data set [2] deals with Mouse. The conditions noted are these: less than 1 ppm, cited from earlier work.
In data set [3] the test system is Guinea Pig. The settings on record: less than 1 ppm, duration 7 days; cited from earlier work.
In data set [4] the test system is man. The conditions noted are these: cited from earlier work.
Data set [5] has as its system patients with acute lung injury/acute respiratory distress syndrome. The settings on record: conventional iNO; cited from earlier work.
The test system of data set [6] is patients with pulmonary tuberculosis. The settings on record: 80 ppm; cited from earlier work.
The test system of data set [7] is patents suffering massive pulmonary embolism. The settings on record: inhaled; cited from earlier work.
In data set [8] the test system is patients with pulmonary fibrosis. The settings on record: inhaled; cited from earlier work.
Data set [9] concerns rats. Nature of the data set: Fourteen-day toxicity study using the delivery devices, rats. In kind it is in vivo. The conditions noted are these: doses well in excess of 80 ppm NO.
For data set [10], the system named is mice models of malaria. The settings on record: mouse, in vivo; cited from earlier work.
The subject of data set [11] is COPD patients. The settings on record: NO with oxygen, 3 month period, compared to oxygen alone; cited from earlier work.
The subject of data set [12] is child with traumatic brain injury. The settings on record: NO therapy; cited from earlier work.
The test system of data set [13] is newborns with hypoxic respiratory failure. The conditions noted are these: inhaled; cited from earlier work.
The subject of data set [14] is patients with cardiogenic shock due to RVMI. The conditions noted are these: cited from earlier work.
The subject of data set [15] is dogs. The data set can be described thus: Fourteen-day toxicity study using the delivery devices, dogs. The conditions noted are these: doses well in excess of 80 ppm NO. In kind it is in vivo.

Where two headings read alike, the source gives them in different places.

Take `[O]N=O` [NO2, nitrogen dioxide]: the “OUTCOME(S)” value is “Structural changes in lung collagen fibers” in data set [1], “Increased ascorbic acid levels in the liver” in [2] (duration 1 day), “Depression in serum neutralizing” in data set [2] (duration 90 days) and “Increased protein content of lung lavage fluid” in data set [3]. In addition, the OUTCOME in data set [4] (NO2 dose 0.1 ppm, exposure 60 min, asthmatics) was 13/16 asthmatics increase in reaction to; in data set [4] (NO2 dose 0.7-2.0 ppm, exposure 10 min), “Increase in inspiratory and expiratory flow”; in data set [4] (NO2 dose 1.6-2.0 ppm, exposure 15 min) it was “Significant increase in total airway resistance”.

`[N]=O` [NO, nitric oxide]: the “outcomes (increased PaO2, survival)” value in data set [5] is listed as “positive outcomes”. In addition, the safety of delivery entry in data set [6] is listed as “safely delivered”. The “systemic blood pressures, heart rate and gas exchange” value in data set [7] is recorded as “improvements”. In data set [8], the arterial oxygen tension entry was “without a decrease”, the pulmonary vascular resistance result was “decreased” and the ventilation perfusion matching entry is reported as “maintained”. Besides, in [9], the “Fourteen-day toxicity study outcome” value is listed as “successfully been completed”. In addition, in data set [10], the neurological damage entry was “protection” and the survival result is “increased chance of survival”. Also, in data set [11], the oxygenation result was “did not result in a decrease”. Further, in data set [12], the adverse cerebral effects entry is given as “No adverse cerebral effects”. In addition, in data set [13], the arterial oxygen levels result was “safely improves” and the “need for Extracorporeal Membrane Oxygenation (ECMO)” value is “decreases”. Moreover, in data set [14] (NO 80 ppm acutely), the “decreased mPAP” value was 12%, the “decreased mRAP” value is on record as 12% and the improved cardiac index is 24%. In data set [14] (inhaled NO), the decrease shunt flow was 56% and the systemic oxygen saturation result is reported as “markedly improved”. Besides, in data set [15], the “Fourteen-day toxicity study outcome” value is listed as “successfully been completed”.
